According to ChEMBL document CHEMBL5724914, “Linking interpersonal differences in gut microbiota composition and drug biotransformation activity” (2024):

Assay: (§1) The drug is tested on Z-030 corresponding to mouse gut metagenome with ENA study accession number: PRJEB37062 and ENA sample accession number: ERS12561829 for biotransformation under anaerobic condition. The drug concentrations were measured over 9 timepoints collected between 0 and 24 hours of incubation by liquid-chromatography-coupled mass spectrometry (LC–MS)
Conditions: 2 µM
Note: call rule not given here.

Bacterial Biotransformation | SMILES
Compound NOT metabolized | CN1CCCCC1CCN1c2ccccc2Sc2ccc([S+](C)[O-])cc21.O=S(=O)(O)c1ccccc1 (stereo not drawn) [MESORIDAZINE BESYLATE]

Assay: as §1, with “Z-029” for “Z-030”, “rat” for “mouse”, “ERS12561828” for “ERS12561829”
Conditions: 2 µM

Bacterial Biotransformation | SMILES
Compound NOT metabolized | CN1CCCCC1CCN1c2ccccc2Sc2ccc([S+](C)[O-])cc21.O=S(=O)(O)c1ccccc1 (stereo not drawn) [MESORIDAZINE BESYLATE]

Assay: as §1, with “Z-028” for “Z-030”, “ERS12561827” for “ERS12561829”
Conditions: 2 µM

Bacterial Biotransformation | SMILES
Compound NOT metabolized | C[C@H]1C[C@H]2[C@@H]3CCC4=CC(=O)C=C[C@]4(C)[C@@]3(F)[C@@H](O)C[C@]2(C)[C@@]1(O)C(=O)CO [BETAMETHASONE]
Compound NOT metabolized | CN1CCCCC1CCN1c2ccccc2Sc2ccc([S+](C)[O-])cc21.O=S(=O)(O)c1ccccc1 (stereo not drawn) [MESORIDAZINE BESYLATE]

Assay: as §1, with “Z-027” for “Z-030”, “to” for “to mouse gut”, “ERS12561826” for “ERS12561829”
Conditions: 2 µM

Bacterial Biotransformation | SMILES
Compound NOT metabolized | C[C@H]1C[C@H]2[C@@H]3CCC4=CC(=O)C=C[C@]4(C)[C@@]3(F)[C@@H](O)C[C@]2(C)[C@@]1(O)C(=O)CO [BETAMETHASONE]
Compound NOT metabolized | CN1CCCCC1CCN1c2ccccc2Sc2ccc([S+](C)[O-])cc21.O=S(=O)(O)c1ccccc1 (stereo not drawn) [MESORIDAZINE BESYLATE]

Assay: as §1, with “Z-026” for “Z-030”, “to” for “to mouse gut”, “ERS12561825” for “ERS12561829”
Conditions: 2 µM

Bacterial Biotransformation | SMILES
Compound metabolized | C[C@H]1C[C@H]2[C@@H]3CCC4=CC(=O)C=C[C@]4(C)[C@@]3(F)[C@@H](O)C[C@]2(C)[C@@]1(O)C(=O)CO [BETAMETHASONE]
Compound NOT metabolized | CN1CCCCC1CCN1c2ccccc2Sc2ccc([S+](C)[O-])cc21.O=S(=O)(O)c1ccccc1 (stereo not drawn) [MESORIDAZINE BESYLATE]

Assay: as §1, with “Z-025” for “Z-030”, “rabbit” for “mouse”, “ERS12561824” for “ERS12561829”
Conditions: 2 µM

Bacterial Biotransformation | SMILES
Compound metabolized | CN1CCCCC1CCN1c2ccccc2Sc2ccc([S+](C)[O-])cc21.O=S(=O)(O)c1ccccc1 (stereo not drawn) [MESORIDAZINE BESYLATE]

Assay: as §1, with “Z-024” for “Z-030”, “pig” for “mouse”, “ERS12561823” for “ERS12561829”
Conditions: 2 µM

Bacterial Biotransformation | SMILES
Compound metabolized | C[C@H]1C[C@H]2[C@@H]3CCC4=CC(=O)C=C[C@]4(C)[C@@]3(F)[C@@H](O)C[C@]2(C)[C@@]1(O)C(=O)CO [BETAMETHASONE]
Compound NOT metabolized | CN1CCCCC1CCN1c2ccccc2Sc2ccc([S+](C)[O-])cc21.O=S(=O)(O)c1ccccc1 (stereo not drawn) [MESORIDAZINE BESYLATE]

Assay: as §1, with “Z-023” for “Z-030”, “to” for “to mouse gut”, “ERS12561822” for “ERS12561829”
Conditions: 2 µM

Bacterial Biotransformation | SMILES
Compound metabolized | C[C@H]1C[C@H]2[C@@H]3CCC4=CC(=O)C=C[C@]4(C)[C@@]3(F)[C@@H](O)C[C@]2(C)[C@@]1(O)C(=O)CO [BETAMETHASONE]
Compound NOT metabolized | CN1CCCCC1CCN1c2ccccc2Sc2ccc([S+](C)[O-])cc21.O=S(=O)(O)c1ccccc1 (stereo not drawn) [MESORIDAZINE BESYLATE]

Assay: as §1, with “Z-022” for “Z-030”, “ERS12561821” for “ERS12561829”
Conditions: 2 µM

Bacterial Biotransformation | SMILES
Compound metabolized | C[C@H]1C[C@H]2[C@@H]3CCC4=CC(=O)C=C[C@]4(C)[C@@]3(F)[C@@H](O)C[C@]2(C)[C@@]1(O)C(=O)CO [BETAMETHASONE]
Compound NOT metabolized | CN1CCCCC1CCN1c2ccccc2Sc2ccc([S+](C)[O-])cc21.O=S(=O)(O)c1ccccc1 (stereo not drawn) [MESORIDAZINE BESYLATE]

Assay: as §1, with “Z-021” for “Z-030”, “to” for “to mouse gut”, “ERS12561820” for “ERS12561829”
Conditions: 2 µM

Bacterial Biotransformation | SMILES
Compound metabolized | C[C@H]1C[C@H]2[C@@H]3CCC4=CC(=O)C=C[C@]4(C)[C@@]3(F)[C@@H](O)C[C@]2(C)[C@@]1(O)C(=O)CO [BETAMETHASONE]
Compound NOT metabolized | CN1CCCCC1CCN1c2ccccc2Sc2ccc([S+](C)[O-])cc21.O=S(=O)(O)c1ccccc1 (stereo not drawn) [MESORIDAZINE BESYLATE]

Assay: as §1, with “Z-016” for “Z-030”, “ERS12561815” for “ERS12561829”
Conditions: 2 µM

Bacterial Biotransformation | SMILES
Compound metabolized | CN1CCCCC1CCN1c2ccccc2Sc2ccc([S+](C)[O-])cc21.O=S(=O)(O)c1ccccc1 (stereo not drawn) [MESORIDAZINE BESYLATE]

Assay: as §1, with “Z-013” for “Z-030”, “rabbit” for “mouse”, “ERS12561813” for “ERS12561829”
Conditions: 2 µM

Bacterial Biotransformation | SMILES
Compound NOT metabolized | CN1CCCCC1CCN1c2ccccc2Sc2ccc([S+](C)[O-])cc21.O=S(=O)(O)c1ccccc1 (stereo not drawn) [MESORIDAZINE BESYLATE]

Assay: as §1, with “Z-012” for “Z-030”, “to” for “to mouse gut”, “ERS12561812” for “ERS12561829”
Conditions: 2 µM

Bacterial Biotransformation | SMILES
Compound metabolized | C[C@H]1C[C@H]2[C@@H]3CCC4=CC(=O)C=C[C@]4(C)[C@@]3(F)[C@@H](O)C[C@]2(C)[C@@]1(O)C(=O)CO [BETAMETHASONE]
Compound metabolized | CN1CCCCC1CCN1c2ccccc2Sc2ccc([S+](C)[O-])cc21.O=S(=O)(O)c1ccccc1 (stereo not drawn) [MESORIDAZINE BESYLATE]

Assay: as §1, with “Z-011” for “Z-030”, “ERS12561811” for “ERS12561829”
Conditions: 2 µM

Bacterial Biotransformation | SMILES
Compound NOT metabolized | C[C@H]1C[C@H]2[C@@H]3CCC4=CC(=O)C=C[C@]4(C)[C@@]3(F)[C@@H](O)C[C@]2(C)[C@@]1(O)C(=O)CO [BETAMETHASONE]
Compound NOT metabolized | CN1CCCCC1CCN1c2ccccc2Sc2ccc([S+](C)[O-])cc21.O=S(=O)(O)c1ccccc1 (stereo not drawn) [MESORIDAZINE BESYLATE]

Assay: as §1, with “Z-010” for “Z-030”, “to” for “to mouse gut”, “ERS12561810” for “ERS12561829”
Conditions: 2 µM

Bacterial Biotransformation | SMILES
Compound metabolized | C[C@H]1C[C@H]2[C@@H]3CCC4=CC(=O)C=C[C@]4(C)[C@@]3(F)[C@@H](O)C[C@]2(C)[C@@]1(O)C(=O)CO [BETAMETHASONE]
Compound metabolized | CN1CCCCC1CCN1c2ccccc2Sc2ccc([S+](C)[O-])cc21.O=S(=O)(O)c1ccccc1 (stereo not drawn) [MESORIDAZINE BESYLATE]

Assay: as §1, with “Z-009” for “Z-030”, “pig” for “mouse”, “ERS12561809” for “ERS12561829”
Conditions: 2 µM

Bacterial Biotransformation | SMILES
Compound metabolized | C[C@H]1C[C@H]2[C@@H]3CCC4=CC(=O)C=C[C@]4(C)[C@@]3(F)[C@@H](O)C[C@]2(C)[C@@]1(O)C(=O)CO [BETAMETHASONE]
Compound metabolized | CN1CCCCC1CCN1c2ccccc2Sc2ccc([S+](C)[O-])cc21.O=S(=O)(O)c1ccccc1 (stereo not drawn) [MESORIDAZINE BESYLATE]

Assay: as §1, with “Z-008” for “Z-030”, “to” for “to mouse gut”, “ERS12561808” for “ERS12561829”
Conditions: 2 µM

Bacterial Biotransformation | SMILES
Compound NOT metabolized | C[C@H]1C[C@H]2[C@@H]3CCC4=CC(=O)C=C[C@]4(C)[C@@]3(F)[C@@H](O)C[C@]2(C)[C@@]1(O)C(=O)CO [BETAMETHASONE]
Compound NOT metabolized | CN1CCCCC1CCN1c2ccccc2Sc2ccc([S+](C)[O-])cc21.O=S(=O)(O)c1ccccc1 (stereo not drawn) [MESORIDAZINE BESYLATE]

Assay: as §1, with “Z-007” for “Z-030”, “rat” for “mouse”, “ERS12561807” for “ERS12561829”
Conditions: 2 µM

Bacterial Biotransformation | SMILES
Compound NOT metabolized | C[C@H]1C[C@H]2[C@@H]3CCC4=CC(=O)C=C[C@]4(C)[C@@]3(F)[C@@H](O)C[C@]2(C)[C@@]1(O)C(=O)CO [BETAMETHASONE]
Compound NOT metabolized | CN1CCCCC1CCN1c2ccccc2Sc2ccc([S+](C)[O-])cc21.O=S(=O)(O)c1ccccc1 (stereo not drawn) [MESORIDAZINE BESYLATE]

Assay: as §1, with “Z-006” for “Z-030”, “ERS12561806” for “ERS12561829”
Conditions: 2 µM

Bacterial Biotransformation | SMILES
Compound NOT metabolized | C[C@H]1C[C@H]2[C@@H]3CCC4=CC(=O)C=C[C@]4(C)[C@@]3(F)[C@@H](O)C[C@]2(C)[C@@]1(O)C(=O)CO [BETAMETHASONE]
Compound NOT metabolized | CN1CCCCC1CCN1c2ccccc2Sc2ccc([S+](C)[O-])cc21.O=S(=O)(O)c1ccccc1 (stereo not drawn) [MESORIDAZINE BESYLATE]

Assay: as §1, with “Z-005” for “Z-030”, “to” for “to mouse gut”, “ERS12561805” for “ERS12561829”
Conditions: 2 µM

Bacterial Biotransformation | SMILES
Compound NOT metabolized | C[C@H]1C[C@H]2[C@@H]3CCC4=CC(=O)C=C[C@]4(C)[C@@]3(F)[C@@H](O)C[C@]2(C)[C@@]1(O)C(=O)CO [BETAMETHASONE]
Compound metabolized | CN1CCCCC1CCN1c2ccccc2Sc2ccc([S+](C)[O-])cc21.O=S(=O)(O)c1ccccc1 (stereo not drawn) [MESORIDAZINE BESYLATE]

Assay: as §1, with “Z-004” for “Z-030”, “to” for “to mouse gut”, “ERS12561804” for “ERS12561829”
Conditions: 2 µM

Bacterial Biotransformation | SMILES
Compound metabolized | C[C@H]1C[C@H]2[C@@H]3CCC4=CC(=O)C=C[C@]4(C)[C@@]3(F)[C@@H](O)C[C@]2(C)[C@@]1(O)C(=O)CO [BETAMETHASONE]
Compound metabolized | CN1CCCCC1CCN1c2ccccc2Sc2ccc([S+](C)[O-])cc21.O=S(=O)(O)c1ccccc1 (stereo not drawn) [MESORIDAZINE BESYLATE]

Assay: as §1, with “Z-003” for “Z-030”, “pig” for “mouse”, “ERS12561803” for “ERS12561829”
Conditions: 2 µM

Bacterial Biotransformation | SMILES
Compound metabolized | C[C@H]1C[C@H]2[C@@H]3CCC4=CC(=O)C=C[C@]4(C)[C@@]3(F)[C@@H](O)C[C@]2(C)[C@@]1(O)C(=O)CO [BETAMETHASONE]
Compound metabolized | CN1CCCCC1CCN1c2ccccc2Sc2ccc([S+](C)[O-])cc21.O=S(=O)(O)c1ccccc1 (stereo not drawn) [MESORIDAZINE BESYLATE]

Assay: as §1, with “Z-002” for “Z-030”, “rabbit” for “mouse”, “ERS12561802” for “ERS12561829”
Conditions: 2 µM

Bacterial Biotransformation | SMILES
Compound metabolized | C[C@H]1C[C@H]2[C@@H]3CCC4=CC(=O)C=C[C@]4(C)[C@@]3(F)[C@@H](O)C[C@]2(C)[C@@]1(O)C(=O)CO [BETAMETHASONE]
Compound metabolized | CN1CCCCC1CCN1c2ccccc2Sc2ccc([S+](C)[O-])cc21.O=S(=O)(O)c1ccccc1 (stereo not drawn) [MESORIDAZINE BESYLATE]

Assay: as §1, with “Z-001” for “Z-030”, “ERS12561801” for “ERS12561829”
Conditions: 2 µM

Bacterial Biotransformation | SMILES
Compound NOT metabolized | C[C@H]1C[C@H]2[C@@H]3CCC4=CC(=O)C=C[C@]4(C)[C@@]3(F)[C@@H](O)C[C@]2(C)[C@@]1(O)C(=O)CO [BETAMETHASONE]
Compound NOT metabolized | CN1CCCCC1CCN1c2ccccc2Sc2ccc([S+](C)[O-])cc21.O=S(=O)(O)c1ccccc1 (stereo not drawn) [MESORIDAZINE BESYLATE]
